The record followed here is the supplement of paper PMC10307832.

Assay in all cases: relative viability (nuclei count vs DMSO), 5 days (fraction); higher = more cells survive
Compound in the assay “KIN001-266 + Phenformin”: CCN1CCC(CC1)N2C=C(N=N2)CNC3=CC4=C(C(=CN=C4C(=C3)Cl)C#N)NC5=CC(=C(C=C5)F)Cl [KIN001-266] + N=C(N)NC(=N)NCCc1ccccc1 [Phenformin] (partner 250 µM)
The method in brief:
(§1)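 Lung cancer cell lines in 1536-well plates got either a single drug or a fixed anchor-drug dose together with five library-drug doses (not always all listed) in √10 steps, by pin tool, on the day after seeding. Nuclei were counted after 5 days, and relative viability is the treated-to-vehicle ratio of nuclei counts. Values are medians of duplicate plates.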

Compound in the assay “KIN001-266 + Palbociclib”: CCN1CCC(CC1)N2C=C(N=N2)CNC3=CC4=C(C(=CN=C4C(=C3)Cl)C#N)NC5=CC(=C(C=C5)F)Cl [KIN001-266] + CC(=O)c1c(C)c2cnc(Nc3ccc(N4CCNCC4)cn3)nc2n(C2CCCC2)c1=O [Palbociclib] (partner 0.5 µM)
The method in brief: as §1

Compound in the assay “KIN001-266 + Pictilisib”: CCN1CCC(CC1)N2C=C(N=N2)CNC3=CC4=C(C(=CN=C4C(=C3)Cl)C#N)NC5=CC(=C(C=C5)F)Cl [KIN001-266] + CS(=O)(=O)N1CCN(Cc2cc3nc(-c4cccc5[nH]ncc45)nc(N4CCOCC4)c3s2)CC1 [Pictilisib] (partner 1 µM)
The method in brief: as §1

Compound in the assay “KIN001-266 + Decitabine”: CCN1CCC(CC1)N2C=C(N=N2)CNC3=CC4=C(C(=CN=C4C(=C3)Cl)C#N)NC5=CC(=C(C=C5)F)Cl [KIN001-266] + Nc1ncn([C@H]2C[C@H](O)[C@@H](CO)O2)c(=O)n1 [Decitabine] (partner 2 µM)
The method in brief:
as §1

Turning to NCI-H2087, the relative viability came out at 0.439 in the assay with KIN001-266 + Phenformin (first compound 0.08 µM); 0.467 in the assay with KIN001-266 + Phenformin (first compound 0.253 µM); 0.38 with KIN001-266 + Phenformin (first compound 0.8 µM); 0.352 in the assay with KIN001-266 + Phenformin (first compound 2.53 µM); 0.234 with KIN001-266 + Phenformin (first compound 8 µM); 0.241 with KIN001-266 + Palbociclib (first compound 0.08 µM). The relative viability with KIN001-266 + Palbociclib (first compound 0.253 µM) was 0.308; in the assay with KIN001-266 + Palbociclib (first compound 0.8 µM) it was 0.267; in the assay with KIN001-266 + Palbociclib (first compound 2.53 µM), 0.26; in the assay with KIN001-266 + Palbociclib (first compound 8 µM), 0.242; in the assay with KIN001-266 + Pictilisib (first compound 0.08 µM) it was 1.02; in the assay with KIN001-266 + Pictilisib (first compound 0.253 µM), 0.934. In addition, the relative viability with KIN001-266 + Pictilisib (first compound 0.8 µM) was found to be 0.71; in the assay with KIN001-266 + Pictilisib (first compound 2.53 µM) it was 0.868; in the assay with KIN001-266 + Pictilisib (first compound 8 µM), 0.554; with KIN001-266 + Decitabine (first compound 0.08 µM), 0.29; in the assay with KIN001-266 + Decitabine (first compound 0.253 µM), 0.288; in the assay with KIN001-266 + Decitabine (first compound 0.8 µM) it was 0.257. For the same cell line, the relative viability with KIN001-266 + Decitabine (first compound 2.53 µM) came to 0.299; with KIN001-266 + Decitabine (first compound 8 µM), 0.258.

NCI-H727: the relative viability with KIN001-266 + Phenformin (first compound 0.08 µM) is 0.612; in the assay with KIN001-266 + Phenformin (first compound 0.253 µM), 0.615; with KIN001-266 + Phenformin (first compound 0.8 µM) it was 0.509; with KIN001-266 + Phenformin (first compound 2.53 µM) it was 0.595; in the assay with KIN001-266 + Phenformin (first compound 8 µM), 0.364; with KIN001-266 + Palbociclib (first compound 0.08 µM) it was 0.683. Moreover, the relative viability turned out to be 0.617 in the assay with KIN001-266 + Palbociclib (first compound 0.253 µM); 0.642 with KIN001-266 + Palbociclib (first compound 0.8 µM); 0.671 with KIN001-266 + Palbociclib (first compound 2.53 µM); 0.729 with KIN001-266 + Palbociclib (first compound 8 µM); 0.389 with KIN001-266 + Pictilisib (first compound 0.08 µM); 0.351 in the assay with KIN001-266 + Pictilisib (first compound 0.253 µM). In addition, the relative viability with KIN001-266 + Pictilisib (first compound 0.8 µM) was determined as 0.327; in the assay with KIN001-266 + Pictilisib (first compound 2.53 µM), 0.264; with KIN001-266 + Pictilisib (first compound 8 µM) it was 0.304; in the assay with KIN001-266 + Decitabine (first compound 0.08 µM), 0.9; in the assay with KIN001-266 + Decitabine (first compound 0.253 µM), 0.954; with KIN001-266 + Decitabine (first compound 0.8 µM) it was 0.744. For the same cell line, the relative viability in the assay with KIN001-266 + Decitabine (first compound 2.53 µM) worked out at 0.755; with KIN001-266 + Decitabine (first compound 8 µM), 0.643.

Turning to NCI-H650, the relative viability in the assay with KIN001-266 + Phenformin (first compound 0.08 µM) stood at 0.499; with KIN001-266 + Phenformin (first compound 0.253 µM) it was 0.503; with KIN001-266 + Phenformin (first compound 0.8 µM), 0.495; in the assay with KIN001-266 + Phenformin (first compound 2.53 µM), 0.463; with KIN001-266 + Phenformin (first compound 8 µM) it was 0.507; with KIN001-266 + Palbociclib (first compound 0.08 µM) it was 0.375. The relative viability stood at 0.361 with KIN001-266 + Palbociclib (first compound 0.253 µM); 0.357 with KIN001-266 + Palbociclib (first compound 0.8 µM); 0.363 in the assay with KIN001-266 + Palbociclib (first compound 2.53 µM); 0.413 in the assay with KIN001-266 + Palbociclib (first compound 8 µM); 0.924 in the assay with KIN001-266 + Pictilisib (first compound 0.08 µM); 0.899 in the assay with KIN001-266 + Pictilisib (first compound 0.253 µM). In addition, the relative viability was 0.917 in the assay with KIN001-266 + Pictilisib (first compound 0.8 µM); 0.921 with KIN001-266 + Pictilisib (first compound 2.53 µM); 0.908 with KIN001-266 + Pictilisib (first compound 8 µM); 0.346 with KIN001-266 + Decitabine (first compound 0.08 µM); 0.337 with KIN001-266 + Decitabine (first compound 0.253 µM); 0.309 in the assay with KIN001-266 + Decitabine (first compound 0.8 µM). For the same cell line, the relative viability with KIN001-266 + Decitabine (first compound 2.53 µM) was 0.319; with KIN001-266 + Decitabine (first compound 8 µM), 0.306.

In the case of NCI-H520, the relative viability in the assay with KIN001-266 + Phenformin (first compound 0.08 µM) came out at 0.793; in the assay with KIN001-266 + Phenformin (first compound 0.253 µM), 0.633; with KIN001-266 + Phenformin (first compound 0.8 µM), 0.706; with KIN001-266 + Phenformin (first compound 2.53 µM) it was 0.376; in the assay with KIN001-266 + Phenformin (first compound 8 µM) it was 0.58; with KIN001-266 + Palbociclib (first compound 0.08 µM), 0.23. Besides, the relative viability is 0.236 with KIN001-266 + Palbociclib (first compound 0.253 µM); 0.243 in the assay with KIN001-266 + Palbociclib (first compound 0.8 µM); 0.165 with KIN001-266 + Palbociclib (first compound 2.53 µM); 0.237 with KIN001-266 + Palbociclib (first compound 8 µM); 0.311 with KIN001-266 + Pictilisib (first compound 0.08 µM); 0.242 with KIN001-266 + Pictilisib (first compound 0.253 µM). Also, the relative viability with KIN001-266 + Pictilisib (first compound 0.8 µM) worked out at 0.289; with KIN001-266 + Pictilisib (first compound 2.53 µM), 0.237; with KIN001-266 + Pictilisib (first compound 8 µM), 0.286; with KIN001-266 + Decitabine (first compound 0.08 µM), 0.538; with KIN001-266 + Decitabine (first compound 0.253 µM) it was 0.548; with KIN001-266 + Decitabine (first compound 0.8 µM), 0.576. Further, the relative viability with KIN001-266 + Decitabine (first compound 2.53 µM) came to 0.474; with KIN001-266 + Decitabine (first compound 8 µM), 0.459.
